Test results from US20160106814A1, “Novel Oral Pharmaceutical Composition for Treatment of Diabetes” (NOVO NORDISK A/S, priority 2013, published 2016).
*1 amine or outer side, *2 acyl side, *3 side chain or, on linkers, in order; H or OH if unused. Where a SMILES comes first, the peptide text is derived from it. Bridges are numbered along the chain shown (N, C = ends). Roman numbers before positions name the chains, in order. Side-chain parts run from the residue outwards. [ ]: non-standard residue; d: D form. The star is where a group is joined. C18 diacid = O=C(O)CCCCCCCCCCCCCCCCC(=O)*; NMe2Phe = CN(C)[C@@H](Cc1ccccc1)C(=O)*; γGlu = O=C(O)[C@H](CCC(=O)[*:2])N[*:1]; C14 diacid = O=C(O)CCCCCCCCCCCCC(=O)*; AEEA = NCCOCCOCC(=O)O; Me2Gly = CN(C)CC(=O)*; Aib = CC(C)(N)C(=O)O

How the values were obtained:
[1] = GLP-1 peptide degradation by GI extracts in presence of BBI; assay type: in vitro ADME, Sprague Dawley rats; settings: half-life with 0.1% BBI divided by half-life without BBI, rat GI juice
Description: 96 well plates were coated by incubating with 0.4% BSA solution for a minimum of 60 min. To each well, 210 μl of buffer (HBSS-HEPES buffer with 0.005% Tween 20 and 0.005% BSA, pH 6.5), 30 μl of a substrate (100 μM GLP-1 peptide in buffer) and 30 μl of BBI (1%) were added. The plates were pre-incubated (before adding GI juice) for 60 min at 37° C. After addition of 30 μl of GI juice, the plates were incubated for 60 min/37° C. on shaker. Samples (40 μl) were taken at 0, 3, 6, 10, 30 and 60 min, stopped with 3 vol. cold 96% EtOH w. 1% HCOOH and centrifuged (4500 rcf for 10 min at 4° C.). The resulting supernatant from the samples were diluted 5 times with the buffer prior to LC-MS analysis. Standard samples (0.1, 0.5, 1.0, 5.0, 10.0 μM) were prepared and treated as the samples. Standard curve was analysed both at the beginning and the end of the sequence. Two replicates of each tested conditions were included. Intact GLP-1 peptide was determined in each sample. The results were plotted against the incubation time. Half-lives of the GLP-1 peptide was determined by nonlinear regression of the results using, for example Graph Pad Prism. The half-lives were expressed relative to the half-life of the GLP-1 peptide without BBI present by dividing the half-lives obtained in the presence of inhibitor with those obtained in the absence of BBI. […]

[2] = Transport of GLP-1 peptide across mucus-producing E12 cell monolayers in the presence of sodium caprate and BBI; assay type: in vitro ADME; settings: for Papp A→B at 100 µM: human
Description: Buffer was then removed and the experiment initiated. […] Receiver samples (200 μl) were taken every 15 min.
In all samples with GLP-1 peptide and mannitol, the concentration of GLP-1 peptide was determined using a LOCI assay (or LC-MS assay) and scintillation counter, respectively.

[3] = Insulin peptide degradation by GI extracts in presence of BBI; assay type: in vitro ADME, Sprague Dawley rats; settings: rat; for half-life at 10 µM: male, Sprague Dawley, real gastrointestinal fluid or homogenate
Description: 96 well plates were coated by incubating with 0.4% BSA solution for minimum of 60 min. […] The plates were pre-incubated (before adding GI juice) for 60 min at 37° C. After addition of 30 μl of GI juice, the plates were incubated for 60 min/37° C. on shaker. Samples (40 μl) were taken at 0, 3, 6, 10, 30 and 60 min, stopped with 3 vol. cold 96% EtOH (ethanol) w. 1% HCOOH (formic acid) and centrifuged (4500 rcf for 10 min at 4° C.). The resulting supernatant from the samples were diluted 5 times with the buffer prior to LC-MS analysis. Standard samples (0.1, 0.5, 1.0, 5.0, 10.0 μM) were prepared and treated as the samples. Standard curve was analysed both at the beginning and the end of the sequence. Two replicates of each tested conditions were included. […] The results were plotted against the incubation time. […] GI juice was prepared from male Sprague Dawley rats (200-250 g) by excising approximately 20 cm piece of mid jejunum and rinsing the inside with 2.5 ml 0.9% sodium chloride solution. The sodium chloride solution was collected in a centrifuge tube, pooled from all rats (20) and centrifuged at 4500 rpm./10 min/4° C. The supernatant was aliquoted in tubes and stored at −80° C.

[4] = pH 7.4, apical to basolateral, 100 μM GLP-1 peptide + 13 mM sodium caprate, without BBI

For CC[C@H](C)[C@H](NC(=O)[C@H](Cc1ccccc1)NC(=O)[C@H](CCC(=O)O)NC(=O)[C@H](CCCCNC(=O)COCCOCCNC(=O)COCCOCCNC(=O)CC[C@H](NC(=O)CCCCCCCCCCCCCCCCC(=O)O)C(=O)O)NC(=O)[C@H](C)NC(=O)[C@H](C)NC(=O)[C@H](CCC(N)=O)NC(=O)CNC(=O)[C@H](CCC(=O)O)NC(=O)[C@H](CC(C)C)NC(=O)[C@H](Cc1ccc(O)cc1)NC(=O)[C@H](CO)NC(=O)[C@H](CO)NC(=O)[C@@H](NC(=O)[C@H](CC(=O)O)NC(=O)[C@H](CO)NC(=O)[C@@H](NC(=O)[C@H](Cc1ccccc1)NC(=O)[C@@H](NC(=O)CNC(=O)[C@H](CCC(=O)O)NC(=O)C(C)(C)NC(=O)[C@@H](N)Cc1cnc[nH]1)[C@@H](C)O)[C@@H](C)O)C(C)C)C(=O)N[C@@H](C)C(=O)N[C@@H](Cc1c[nH]c2ccccc12)C(=O)N[C@@H](CC(C)C)C(=O)N[C@H](C(=O)N[C@@H](CCCNC(=N)N)C(=O)NCC(=O)N[C@@H](CCCNC(=N)N)C(=O)NCC(=O)O)C(C)C [GLP-1 peptide 1, N{Epsilon-26}-[2-[2-[2-[[2-[2-[2-[[(4S)-4-carboxy-4-(17-carboxy-heptadecanoylamino)butanoyl]amino]ethoxy]ethoxy]acetyl]amino]ethoxy]ethoxy]acetyl]-[Aib8,Arg34]-GLP-1-(7-37)-peptide], the “Half Life (fold increase)” value [1] was over 15 fold, the Papp A→B at 100 µM [2, 4] was 1.48 nm/s and the Papp A→B at 100 µM ([2]; pH 7.4, with Bowman Birk inhibitor (BBI) 0.2%, apical to basolateral, 100 μM GLP-1 peptide + 13 mM sodium caprate + 0.2% BBI) was 3.19 nm/s.
With “I: NMe2Phe-VNQHLCGSHLVEALYLVCGERGFHYTPK([AEEA-AEEA-γGlu-C18 diacid])-OH / II: Me2Gly-IVEQCCTSICSLEQLENYCN-OH (disulfide I:6-II:6, I:18-II:19, II:5-II:10) [Insulin 2, N{A1},N{A1}-dimethyl,N{B1},N{B1}-dimethyl,N{Epsilon-B29}-[2-[2-[2-[[2-[2-[2-[[(4S)-4-carboxy-4-(17-carboxyheptadecanoylamino)butanoyl]amino]ethoxy]ethoxy]acetyl]amino]-ethoxy]ethoxy]acetyl]-[GluA14,HisB25],des-ThrB30-Insulin(human)]” the half-life at 10 µM ([3]; pH 6.5, Half Life of insulin peptide) was 1.1 min, the half-life at 10 µM ([3]; pH 6.5, Half Life of insulin peptide in presence of 0.1% BBI) was over 1000 min and the “Half Life (fold increase)” value [3] was over 910 fold.
CC[C@H](C)[C@H](NC(=O)[C@H](Cc1ccccc1)NC(=O)[C@H](CCC(=O)O)NC(=O)[C@H](CCCCNC(=O)COCCOCCNC(=O)COCCOCCNC(=O)CC[C@H](NC(=O)CCCCCCCCCCCCC(=O)O)C(=O)O)NC(=O)[C@H](C)NC(=O)[C@H](C)NC(=O)[C@H](CCC(N)=O)NC(=O)[C@H](CCC(=O)O)NC(=O)[C@H](CCC(=O)O)NC(=O)[C@H](CC(C)C)NC(=O)[C@H](Cc1ccc(O)cc1)NC(=O)[C@H](CCCCNC(=O)COCCOCCNC(=O)COCCOCCNC(=O)CC[C@H](NC(=O)CCCCCCCCCCCCC(=O)O)C(=O)O)NC(=O)[C@H](CO)NC(=O)[C@@H](NC(=O)[C@H](CC(=O)O)NC(=O)[C@H](CO)NC(=O)[C@@H](NC(=O)[C@H](Cc1ccccc1)NC(=O)[C@@H](NC(=O)CNC(=O)[C@H](CCC(=O)O)NC(=O)C(C)(C)NC(=O)[C@@H](N)Cc1c[nH]cn1)[C@@H](C)O)[C@@H](C)O)C(C)C)C(=O)N[C@@H](C)C(=O)N[C@@H](Cc1c[nH]c2ccccc12)C(=O)N[C@@H](CC(C)C)C(=O)N[C@H](C(=O)N[C@@H](CCCNC(=N)N)C(=O)NCC(=O)N[C@@H](CCCNC(=N)N)C(=O)NCC(=O)O)C(C)C [GLP-1 peptide 5, N{Epsilon-18}-[2-[2-[2-[[2-[2-[2-[[(4S)-4-carboxy-4-(13-carboxytridecanoylamino)butanoyl]amino]ethoxy]ethoxy]acetyl]amino]ethoxy]ethoxy]acetyl], —N{Epsilon-26}-[2-[2-[2-[[2-[2-[2-[[(4S)-4-carboxy-4-(13-carboxytridecanoylamino)butanoyl]-amino]ethoxy]ethoxy]acetyl]amino]ethoxy]ethoxy]acetyl]-[Aib8,Lys18,Glu22,Arg34]-GLP-1-(7-37)-peptide] (H-H[Aib]EGTFTSDVSK([AEEA-AEEA-γGlu-C14 diacid])YLEEQAAK([AEEA-AEEA-γGlu-C14 diacid])EFIAWLVRGRG-OH) showed a Papp A→B ([2]; pH 7.4, apical to basolateral, 100 μM GLP-1 peptide + 13 mM sodium caprate + 0.2% BBI) of 5.92 nm/s and a Papp A→B [2, 4] of 3.14 nm/s.
